How the values were obtained:
[1] = system: choroidal neovascularization; experiment: Laser induced choroidal neovascularization (CNV) model; assay type: in vivo, mice
Experimental: Mouse Model of Choroidal Neovascularization (CNV).
Laser photocoagulation-induced rupture of Bruch's membrane was used to generate CNV. Briefly, 4-5 week old female C57BL/6J mice were anesthetized with xylazine hydrochloride (10 mg/kg) and ketamine hydrochloride (50 mg/kg) and the pupils were dilated with 1% tropicamide (Alcon Labs, Inc., Fort Worth, Tex., USA). Three burns of 532-nm diode laser photocoagulation (75 μm spot size, 0.1 s duration, 120 mW) were delivered to each retina using the slit lamp delivery system of an OcuLight GL Photocoagulator (Index, Mountain View, Calif., USA) and a hand-held cover slide as a contact lens. Burns were performed in the 9, 12 and 3 o'clock positions of the posterior pole of the retina. Production of a bubble at the time of laser photocoagulation, which indicates rupture of Bruch's membrane, is an important factor in obtaining CNV, so only burns in which a bubble was produced were included in the study. Treatments were begun seven days after laser photocoagulation and included intravitreous injections of 0.1% of SP2043 (SEQ ID NO: 1) (1 μg in a volume of 1 μL), 1% ([…] in a volume of 1 μL of SP2043 (SEQ ID NO: 1)) or vehicle under a dissecting microscope with a Harvard Pump Microinjection System (Harvard Apparatus, Holliston, Mass.) and pulled glass micropipettes. Some mice were euthanized for baseline measurement. Fourteen days after laser, the remaining mice were used to measure the amount of CNV at Bruch's membrane rupture sites. Two weeks after rupture of Bruch's membrane, mice were anesthetized and perfused with fluorescein-labeled dextran (2×10^6 average mol wt, Sigma-Aldrich, St. Louis, Mo., USA) and choroidal flat mounts were prepared as described previously. Briefly, the eyes were removed, fixed for 1 h in 10% phosphate-buffered formalin, and the cornea and lens were removed. […] Flat mounts were examined by fluorescence microscopy using an Axioskop microscope (Zeiss, Thornwood, N.Y., USA) and images were digitized using a 3 CCD color video camera (IK-TU40A, Toshiba, Tokyo, Japan) and a frame grabber. […]

[2] = system: VEGF-induced neovascularization; experiment: rho/VEGF transgenic mice with VEGF-induced neovascularization; assay type: in vivo; conditions: compared to a control; FIGS. 13C-E
Experimental: Transgenic Mice with VEGF-Induced Neovascularization.
At postnatal day 14, hemizygous rho/VEGF mice were given an intraocular injection of 1 μL of 5% DMSO/water, 1 μL of 5% DMSO/water containing 0.1 μg or 1 μg of SP2043 (SEQ ID No: 1) in one eye. Intraocular injections were done under a dissecting microscope with a Harvard Pump Microinjection System (Harvard Apparatus, Holliston, Mass.) and pulled glass micropipettes. At postnatal day 21, the total area of subretinal neovascularization (NV) per eye was quantified. Briefly, mice were anesthetized and perfused with 1 mL of PBS containing 25 mg/mL of fluorescein-labeled dextran (average molecular weight of 2×10^6, Sigma-Aldrich, St. Louis, Mo.). The eyes were removed and fixed for 1 hour in 10% phosphate-buffered formalin. […] The retinas were examined by fluorescence microscopy at 200× magnification, which provides a narrow depth of field so that when focusing on NV on the outer surface of the retina, the remainder of the retinal vessels are out of focus, allowing easy delineation of the NV. […] By using Image analysis software (Image-Pro Plus; Media Cybernetics, Silver Spring, Md.), an investigator masked with respect to treatment group allowed the software to recognize and calculated the total area of subretinal NV per eye as previously described.

neovascularization = experiment: Neovascularization in a rabbit model; assay type: in vivo; conditions: day 34 following intravitreal injection into rabbit eyes; FIG. 26
[3] = system: human umbilical vein endothelial cells (HUVEC); experiment: Migration assay (RT-CIM), HUVEC; assay type: cell-based; conditions: FIG. 1
Experimental: (§1) The inhibitory potential of the peptides was measured using a real time migration assay system based on electrical impedance (RT-CIM, ACEA Biosciences, CA). CIM 16 well plates (Roche, 05665817001) are composed of a top and bottom chamber separated by a microporous (8 μm) polycarbonate membrane. The membrane was coated with fibronectin (20 μg/mL), and 45,000 cells/well in serum free media with or without peptides were added to the top compartment. Media with chemoattractant (i.e., fully supplemented EBM-2) was added to the bottom compartment of the chamber and the plate was incubated at 37° C. for 20 hours. The sensors integrated on the bottom side of the membrane monitor and continuously record changes in impedance as the cells move through the membrane. The RT-CIM technology allows for easy quantification of cell migration by monitoring the cell index derived from the measured impedances. Assays were performed in at least two independent replicates and each replicate was performed using two experimental duplicates. Breast cancer cells MDA-MB-231 are not suitable for the RT-CIM type experiments due to their thin elongated phenotype, thus the inhibition of migration was investigated using a wound healing type assay. This assay was performed using the Oris Pro Migration assay (Platypus Technologies, CMA 1.101). […]

[4] = system: human retinal endothelial cells (HREC); experiment: Migration assay (RT-CIM), HREC; assay type: cell-based; conditions: FIG. 2
Experimental: as §1

LRRFSTAPFAFIDINDVINF (Artificial sequence based on human Collagen Type IV protein) [SP2043]
effect in combination with other anti-angiogenesis agents, such as aflibercept ([1]; laser-induced choroidal neovascularization model in mice, FIG. 28): increased effect
neovascularization in laser induced CNV model ([1]; mouse, FIGS. 13A-B): inhibited
potency in laser induced CNV model compared with aflibercept ([1]; mouse, FIGS. 13A-B): more potently than aflibercept
neovascularization in rho-VEGF mouse model [2]: inhibited
neovascularization in a rabbit model (neovascularization): Inhibition
migration of HUVEC [3]: inhibit
migration of HREC [4]: inhibit

From patent US10774112B2, “Biomimetic peptide and biodegradable delivery platform for the treatment of angiogenesis- and lymphangiogenesis-dependent diseases” (THE JOHNS HOPKINS UNIVERSITY, priority 2013, dated 2020)
